Measurements as given in the NIST ThermoML archive (doi:10.1021/je0342724).
Numbers after ± are expanded uncertainties.

Tests used:
[1] = Crystal; DTA
[2] = Molar enthalpy of transition or fusion; settings: Crystal; DSC

SMILES	Normal melting temperature [1] [°C]	Molar enthalpy of transition or fusion [2] [kcal/mol]
Brc1ccc(Br)cc1 [1,4-dibromobenzene]	84.6 ± 1.1	4.45 ± 0.454
Brc1cc(Br)c(Br)cc1Br [1,2,4,5-tetrabromobenzene]	181.4 ± 1.1	5.83 ± 0.598
Brc1c(Br)c(Br)c(Br)c(Br)c1Br [hexabromobenzene]	325.6 ± 1.1	5.88 ± 0.598
Brc1ccc(Br)c(Br)c1 [1,2,4-tribromobenzene]	44 ± 1.1	4.28 ± 0.43
